The record followed here is US20110015226A1, “Treatment of Energy Utilization Disease” (SUMMIT CORPORATION PLC, priority 2008, published 2011).

Like-named read-outs stand apart in the source and are kept apart here. Where only a bound is given, the exact number is not on record here.

Common to all, as to format: biochemical
Test [1] concerns the target T1, α-D-mannosidase Jack bean (Canavalia ensiformis, UniProt C0HJB3).
T1 construct: α-D-mannosidase (Jack bean); purchased Sigma
T1 sequence (C0HJB3 1-981): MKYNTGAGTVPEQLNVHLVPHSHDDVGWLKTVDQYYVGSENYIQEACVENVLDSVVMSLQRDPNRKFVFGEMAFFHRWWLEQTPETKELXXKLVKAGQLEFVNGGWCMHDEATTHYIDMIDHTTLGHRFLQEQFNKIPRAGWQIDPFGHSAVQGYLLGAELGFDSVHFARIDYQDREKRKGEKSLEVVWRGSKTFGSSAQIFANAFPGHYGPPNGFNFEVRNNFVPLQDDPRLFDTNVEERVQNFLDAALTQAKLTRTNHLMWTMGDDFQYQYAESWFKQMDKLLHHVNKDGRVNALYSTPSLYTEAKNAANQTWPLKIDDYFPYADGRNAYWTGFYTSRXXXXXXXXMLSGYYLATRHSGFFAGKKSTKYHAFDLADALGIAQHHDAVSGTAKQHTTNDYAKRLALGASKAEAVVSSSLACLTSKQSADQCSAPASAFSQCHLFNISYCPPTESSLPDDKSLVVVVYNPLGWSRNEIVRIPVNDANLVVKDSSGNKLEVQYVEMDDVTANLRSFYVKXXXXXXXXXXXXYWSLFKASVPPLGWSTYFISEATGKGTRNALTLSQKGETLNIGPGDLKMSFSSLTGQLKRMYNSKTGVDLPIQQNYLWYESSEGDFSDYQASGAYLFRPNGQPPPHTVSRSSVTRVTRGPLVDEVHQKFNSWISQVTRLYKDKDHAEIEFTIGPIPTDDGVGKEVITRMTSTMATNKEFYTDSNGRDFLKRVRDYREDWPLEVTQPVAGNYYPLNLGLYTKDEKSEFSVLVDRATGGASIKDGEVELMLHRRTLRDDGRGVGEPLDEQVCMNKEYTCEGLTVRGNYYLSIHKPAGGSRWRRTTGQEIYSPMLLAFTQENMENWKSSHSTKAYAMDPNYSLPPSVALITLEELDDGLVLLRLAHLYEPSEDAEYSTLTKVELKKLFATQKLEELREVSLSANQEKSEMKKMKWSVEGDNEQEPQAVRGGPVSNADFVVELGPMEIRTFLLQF
The experiment in a line: Glycosidase inhibition: α-D-mannosidase Jack bean. Particulars: compounds tested at 0.8 mM.

The next test concerns the target T2, α-D-glucosidase (Yeast) (Saccharomyces cerevisiae, UniProt P53341).
T2 construct: purchased Sigma
The experiment in a line: Glycosidase inhibition: α-D-glucosidase (Yeast). Particulars: compounds tested at 0.8 mM. The text has this: (§1) The results tabulated below were obtained using commercially available glycosidases and p-nitrophenyl-substrates using standard methods described for example by Watson et al (1997) Phytochemistry 46 255-259. All enzymes and substrates were bought from Sigma. Enzyme and substrate solutions were made using sodium phosphate buffers at the pH optima values. The enzymes used were α-D-glucosidase Saccharomyces cerevisiae, Bacillus stearothermophilus, Oryzae sativa), β-D-glucosidase (Almond), α-D-mannosidase (Jack bean), α-D-galactosidase (Green coffee beans), β-D-galactosidase (Bovine liver), α-L-fucosidase (Bovine kidney), N-acetyl-β-D-glucosaminidase (Bovine kidney, Jack bean, Aspergillus oryzae), Naringinase (Penicillium decumbens) and amyloglucosidase (Aspergillus niger). All enzymes were used with the appropriate p-nitrophenyl substrates (5 mM). Amyloglucosidase activity was measured using amylopectin (0.1%) (Merck) mixed with sodium phosphate buffer, pH 4.5 in a glass bottle, and healed in a boiling water bath for 20 minutes to dissolve with released glucose measured using ‘Trinder’ glucose detection solution (Sigma).
(§2) All enzymes and para-nitrophenyl substrates were purchased from Sigma, with the exception of beta-mannosidase which came from Megazyme. Enzymes were assayed at 27° C. in 0.1M citric acid/0.2M disodium hydrogen phosphate buffers at the optimum pH for the enzyme. The incubation mixture consisted of 10 μl enzyme solution, 10 μl of 1 mg/ml aqueous solution of extract and 50 μl of the appropriate 5 mM para-nitrophenyl substrate made up in buffer at the optimum pH for the enzyme. The reactions were stopped by addition of 70 μl 0.4M glycine (pH 10.4) during the exponential phase of the reaction, which had been determined at the beginning using uninhibited assays in which water replaced inhibitor. Final absorbances were read at 405 nm using a Versamax microplate reader (Molecular Devices). Assays were carried out in triplicate, and the values given are means of the three replicates per assay. (See Watson, A. A., Nash, R. J., Wormald, M. R., Harvey, D. J., Dealler, S., Lees, E., Asano, N., Kizu, H., Kato, A., Griffiths, R. C., Cairns, A. J. and Fleet, G. W. J. (1997). Glycosidase-inhibiting pyrrolidine alkaloids from Hyacinthoides non-scripta. Phytochemistry 46 (2): 255-259.)

Test [2] addresses T3, α-D-galactosidase Green coffee bean (Coffea arabica, UniProt Q42656).
T3 construct: α-D-galactosidase (Green coffee beans); purchased Sigma; host or cells: green coffee beans
The experiment in a line: Glycosidase inhibition: α-D-galactosidase Green coffee bean. Particulars: compounds tested at 0.8 mM.
From the text: as §1, §2

For test [3], the target named is T4, α-L-fucosidase Bovine kidney (Bos taurus, UniProt Q2KIM0).
T4 construct: α-L-fucosidase (Bovine kidney); purchased Sigma; host or cells: bovine kidney
T4 sequence (Q2KIM0 23-468): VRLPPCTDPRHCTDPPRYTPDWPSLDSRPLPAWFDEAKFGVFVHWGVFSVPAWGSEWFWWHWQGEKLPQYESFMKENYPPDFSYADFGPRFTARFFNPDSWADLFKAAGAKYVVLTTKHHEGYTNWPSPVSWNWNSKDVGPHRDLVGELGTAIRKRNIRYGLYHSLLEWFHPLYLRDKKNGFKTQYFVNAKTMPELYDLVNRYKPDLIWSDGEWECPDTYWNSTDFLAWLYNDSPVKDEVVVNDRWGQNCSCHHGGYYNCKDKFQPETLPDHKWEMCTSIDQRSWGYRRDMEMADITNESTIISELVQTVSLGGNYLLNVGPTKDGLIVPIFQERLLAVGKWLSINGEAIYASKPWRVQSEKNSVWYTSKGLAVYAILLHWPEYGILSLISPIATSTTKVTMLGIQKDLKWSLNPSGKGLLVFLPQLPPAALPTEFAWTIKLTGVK
The test can be described thus: Glycosidase inhibition: α-L-fucosidase Bovine kidney. Particulars: compounds tested at 0.8 mM.

The target of test [4] is T5, N-acetyl-β-D-glucosaminidase (A. oryzae) (Aspergillus oryzae, UniProt Q8J2T0).
T5 construct: purchased Sigma
The experiment in a line: Glycosidase inhibition: N-acetyl-β-D-glucosaminidase (A. oryzae). Conditions: compounds tested at 0.8 mM.
From the text: as §1, §2

For test [5], the system named is N-acetyl-β-D-glucosaminidase (Bovine kidney). The test can be described thus: Glycosidase inhibition: N-acetyl-β-D-glucosaminidase (Bovine kidney).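 As to all read-outs here: enzyme activity followed by cleavage of the matching p-nitrophenyl glycoside (5 mM) in phosphate buffer set to the enzyme's optimal pH.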 Conditions: for % inhibition, N-acetyl-β-D-glucosaminidase (Bovine kidney): compounds tested at 0.8 mM.
Test [6] addresses T6, Amyloglucosidase Aspergillus niger (Aspergillus niger, UniProt P69328).
T6 construct: purchased Sigma
The test can be described thus: Glycosidase inhibition: Amyloglucosidase Aspergillus niger. Conditions: compounds tested at 0.8 mM.
From the text: as §1, §2

The target of test [7] is α-D-glucosidase (Bacillus) (Geobacillus stearothermophilus, UniProt A0ACH1E9U3). The experiment in a line: Glycosidase inhibition: α-D-glucosidase (Bacillus). Conditions: compounds tested at 0.8 mM.
From the text: as §1, §2

A further test concerns the target T7, α-D-glucosidase (Rice) (Oryza sativa subsp. japonica, UniProt Q653V7).
T7 construct: purchased Sigma
The test can be described thus: Glycosidase inhibition: α-D-glucosidase (Rice). Conditions: for inhibition at 800 µM: compounds tested at 0.8 mM; for IC50: read-out: IC50, α-D-glucosidase (Rice).

In test [8] the target is T8, β-Glucuronidase Bovine liver (Bos taurus, UniProt A3KMY8).
T8 construct: The assay involved the use of Bovine liver β-glucuronidase; purchased Sigma; host or cells: bovine liver
T8 sequence (A3KMY8 1-652): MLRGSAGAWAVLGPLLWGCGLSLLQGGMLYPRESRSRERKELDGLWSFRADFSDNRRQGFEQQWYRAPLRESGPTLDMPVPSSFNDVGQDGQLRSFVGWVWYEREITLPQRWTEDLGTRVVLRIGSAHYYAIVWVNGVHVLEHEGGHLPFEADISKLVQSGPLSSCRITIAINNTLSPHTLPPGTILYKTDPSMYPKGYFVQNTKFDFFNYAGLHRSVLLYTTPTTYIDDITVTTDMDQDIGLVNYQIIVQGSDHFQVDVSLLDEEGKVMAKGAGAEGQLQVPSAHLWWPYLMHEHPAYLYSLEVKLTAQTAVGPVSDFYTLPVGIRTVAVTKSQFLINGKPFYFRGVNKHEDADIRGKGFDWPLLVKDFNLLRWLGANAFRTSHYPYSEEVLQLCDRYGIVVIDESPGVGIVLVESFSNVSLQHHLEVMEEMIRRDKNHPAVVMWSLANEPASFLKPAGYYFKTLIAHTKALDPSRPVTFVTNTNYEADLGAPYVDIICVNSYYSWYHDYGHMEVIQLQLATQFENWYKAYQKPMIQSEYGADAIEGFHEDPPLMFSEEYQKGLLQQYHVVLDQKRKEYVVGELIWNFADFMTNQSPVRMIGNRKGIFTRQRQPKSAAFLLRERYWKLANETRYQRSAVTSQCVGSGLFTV
The experiment in a line: Glycosidase inhibition: β-Glucuronidase Bovine liver.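 Also: bovine liver β-glucuronidase acting on p-nitrophenyl β-D-glucuronide substrate in citric acid/disodium hydrogen phosphate buffer, pH 5.0, 27 °C, mean of triplicate runs.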

For test [9], the target named is T9, rabbit intestinal isomaltase (Oryctolagus cuniculus, UniProt P07768).
T9 construct: The small intestine was dissected out of a female wild rabbit; from tissue; host or cells: small-intestinal mucosa of a female wild rabbit
The experiment in a line: Rabbit disaccharidase inhibition assay: isomaltase. Conditions: NI: no inhibition at 0.8 mM. As to the method:
(§3) Sucrose (8.3 mM), maltose (5 mM) and isomaltose (6.3 mM) substrates were made using 0.2 M Macllvaine (citrate-phosphate) buffer, pH 6.0. The glucose detection reagent was prepared according to the supplier's instructions (Megazyme Ltd). Linearity of the timecourse of the reaction between the glucose detection reagent and glucose was tested using a series of glucose dilutions.
(§4) The method for preparation of mammalian small intestine mucosal disaccharidases was based on Griffiths (1998), omitting ammonium sulphate fractionation steps. The small intestine was dissected out of a female wild rabbit, and opened longitudinally using a scalpel. The mucosal layer was scraped off using the edge of a clean microscope slide, and placed into 3 ml of dH2O. The mucosal layer suspension was centrifuged at around 1000 rpm for 30 seconds to sediment tissue debris. The supernatant ([…]) was removed, and centrifuged again at 3500 rcf for 1 minute to remove fine particulates from suspension. The supernatant was diluted to give 0.2-0.25 mg/ml protein and stored at −30° C.
(§5) Enzyme assays were carried out using 5-15 μl of enzyme preparation, 5 μl of test compound (or dH2O for controls) and 15-25 μl of substrate solution. Reactions were covered using a sheet of plate sealing film, and incubated at 37° C. for 60 minutes. Glucose (from disaccharide hydrolysis) was quantified by adding 200 μl of glucose detection reagent and incubating the reactions for a further twenty-five minutes. Absorbance was measured at 510 nm against control blanks.

Test [10] has as its target T10, rabbit intestinal sucrase (Oryctolagus cuniculus, UniProt P07768).
T10 construct: The small intestine was dissected out of a female wild rabbit; from tissue; host or cells: small-intestinal mucosa of a female wild rabbit
The experiment in a line: Rabbit disaccharidase inhibition assay: sucrase. Particulars: NI: no inhibition at 0.8 mM. As to the method:
as §3, §4, §5

For test [11], the target named is rabbit intestinal maltase. The experiment in a line: Rabbit disaccharidase inhibition assay: maltase. Particulars: NI: no inhibition at 0.8 mM. As for the experimental part:
as §3, §4, §5

Setting [12] is: read-out: IC50, N-acetyl-β-D-glucosaminidase (Bovine kidney).
[13] abbreviates: pH 5.0, 27° C., p-nitrophenyl β-D-glucuronide, read-out: IC50, β-Glucuronidase Bovine liver.

T7 sequence (Q653V7 34-885): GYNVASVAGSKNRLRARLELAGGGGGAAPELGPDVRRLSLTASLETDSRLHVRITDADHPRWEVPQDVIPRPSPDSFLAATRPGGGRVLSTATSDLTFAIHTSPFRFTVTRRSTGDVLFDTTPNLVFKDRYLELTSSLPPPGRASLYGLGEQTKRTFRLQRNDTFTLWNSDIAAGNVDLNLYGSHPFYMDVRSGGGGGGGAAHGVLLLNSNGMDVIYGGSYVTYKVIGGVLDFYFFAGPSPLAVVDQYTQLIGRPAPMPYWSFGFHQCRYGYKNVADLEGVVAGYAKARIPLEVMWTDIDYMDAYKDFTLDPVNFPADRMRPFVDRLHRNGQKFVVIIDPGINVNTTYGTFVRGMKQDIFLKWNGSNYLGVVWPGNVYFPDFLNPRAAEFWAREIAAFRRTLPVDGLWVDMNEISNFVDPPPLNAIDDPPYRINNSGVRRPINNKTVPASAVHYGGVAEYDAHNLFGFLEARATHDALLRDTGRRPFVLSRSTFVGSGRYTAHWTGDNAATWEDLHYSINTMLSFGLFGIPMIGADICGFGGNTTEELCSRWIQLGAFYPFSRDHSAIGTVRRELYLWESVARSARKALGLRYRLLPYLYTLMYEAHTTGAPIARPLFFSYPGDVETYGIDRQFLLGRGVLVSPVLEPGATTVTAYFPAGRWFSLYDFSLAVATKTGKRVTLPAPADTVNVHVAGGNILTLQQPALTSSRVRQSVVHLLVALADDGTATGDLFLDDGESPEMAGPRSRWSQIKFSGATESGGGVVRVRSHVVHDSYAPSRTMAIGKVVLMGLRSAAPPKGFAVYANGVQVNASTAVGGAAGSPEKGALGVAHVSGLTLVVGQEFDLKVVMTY
T5 sequence (Q8J2T0 97-600): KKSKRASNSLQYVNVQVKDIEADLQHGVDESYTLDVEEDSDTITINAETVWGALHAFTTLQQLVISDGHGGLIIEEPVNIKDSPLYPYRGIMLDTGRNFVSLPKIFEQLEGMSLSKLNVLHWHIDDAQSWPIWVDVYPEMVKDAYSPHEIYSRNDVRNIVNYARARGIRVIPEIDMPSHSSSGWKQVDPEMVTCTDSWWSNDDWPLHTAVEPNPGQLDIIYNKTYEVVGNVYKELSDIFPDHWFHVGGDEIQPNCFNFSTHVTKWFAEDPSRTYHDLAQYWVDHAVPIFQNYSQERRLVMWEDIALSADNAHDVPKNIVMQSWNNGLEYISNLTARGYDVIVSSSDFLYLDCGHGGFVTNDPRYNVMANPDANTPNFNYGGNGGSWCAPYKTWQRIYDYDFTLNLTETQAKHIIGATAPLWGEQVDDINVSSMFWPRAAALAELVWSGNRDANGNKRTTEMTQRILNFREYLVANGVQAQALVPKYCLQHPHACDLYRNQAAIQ
T2 sequence (P53341 whole entry): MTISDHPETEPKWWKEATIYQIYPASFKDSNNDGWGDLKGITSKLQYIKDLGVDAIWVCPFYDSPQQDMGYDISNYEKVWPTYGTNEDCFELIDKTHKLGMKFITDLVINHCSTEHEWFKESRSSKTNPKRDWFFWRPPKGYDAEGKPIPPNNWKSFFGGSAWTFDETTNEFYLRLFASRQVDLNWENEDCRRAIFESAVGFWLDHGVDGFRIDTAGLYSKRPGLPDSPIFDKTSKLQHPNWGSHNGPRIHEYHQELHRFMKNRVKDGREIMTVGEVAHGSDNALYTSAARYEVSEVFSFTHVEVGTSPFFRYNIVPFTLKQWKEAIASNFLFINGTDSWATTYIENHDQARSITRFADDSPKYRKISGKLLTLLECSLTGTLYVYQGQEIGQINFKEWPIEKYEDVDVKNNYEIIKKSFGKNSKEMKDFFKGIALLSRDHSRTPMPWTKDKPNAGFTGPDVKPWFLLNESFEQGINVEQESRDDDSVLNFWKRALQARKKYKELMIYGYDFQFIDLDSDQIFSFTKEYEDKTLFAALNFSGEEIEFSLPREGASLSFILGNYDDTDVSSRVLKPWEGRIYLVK
T6 sequence (P69328 25-640): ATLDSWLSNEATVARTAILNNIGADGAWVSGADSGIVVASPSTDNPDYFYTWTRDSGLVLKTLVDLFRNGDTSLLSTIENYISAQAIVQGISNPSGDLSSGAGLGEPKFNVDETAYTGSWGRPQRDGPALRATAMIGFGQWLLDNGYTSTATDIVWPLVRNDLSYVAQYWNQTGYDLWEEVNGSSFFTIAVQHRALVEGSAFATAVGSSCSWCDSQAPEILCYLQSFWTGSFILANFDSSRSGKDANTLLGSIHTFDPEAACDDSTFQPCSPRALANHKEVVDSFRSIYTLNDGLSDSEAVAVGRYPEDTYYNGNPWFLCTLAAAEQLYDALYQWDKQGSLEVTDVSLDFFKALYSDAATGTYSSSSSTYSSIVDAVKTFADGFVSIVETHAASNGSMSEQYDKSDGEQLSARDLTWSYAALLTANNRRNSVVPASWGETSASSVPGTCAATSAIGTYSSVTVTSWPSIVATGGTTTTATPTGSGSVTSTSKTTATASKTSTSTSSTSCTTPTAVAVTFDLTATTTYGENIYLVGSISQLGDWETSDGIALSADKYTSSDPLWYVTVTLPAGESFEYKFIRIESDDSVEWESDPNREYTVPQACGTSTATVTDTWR
α-D-glucosidase (Bacillus), sequence (A0ACH1E9U3 entry or part of it): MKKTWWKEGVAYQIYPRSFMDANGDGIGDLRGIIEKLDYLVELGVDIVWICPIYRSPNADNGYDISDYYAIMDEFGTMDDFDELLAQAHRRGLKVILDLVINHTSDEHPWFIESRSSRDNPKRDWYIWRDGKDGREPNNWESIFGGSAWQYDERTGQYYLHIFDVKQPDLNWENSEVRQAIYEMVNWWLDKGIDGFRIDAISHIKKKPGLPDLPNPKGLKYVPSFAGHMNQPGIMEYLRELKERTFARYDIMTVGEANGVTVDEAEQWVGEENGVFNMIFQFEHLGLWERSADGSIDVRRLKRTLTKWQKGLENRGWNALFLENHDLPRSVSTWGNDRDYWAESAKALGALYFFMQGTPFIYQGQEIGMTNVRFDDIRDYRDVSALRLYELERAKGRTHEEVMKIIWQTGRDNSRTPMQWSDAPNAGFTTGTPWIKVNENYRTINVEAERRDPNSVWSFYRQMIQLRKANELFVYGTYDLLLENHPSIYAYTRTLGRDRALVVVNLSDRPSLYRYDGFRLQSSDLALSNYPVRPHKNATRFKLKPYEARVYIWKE
T3 sequence (Q42656 16-378): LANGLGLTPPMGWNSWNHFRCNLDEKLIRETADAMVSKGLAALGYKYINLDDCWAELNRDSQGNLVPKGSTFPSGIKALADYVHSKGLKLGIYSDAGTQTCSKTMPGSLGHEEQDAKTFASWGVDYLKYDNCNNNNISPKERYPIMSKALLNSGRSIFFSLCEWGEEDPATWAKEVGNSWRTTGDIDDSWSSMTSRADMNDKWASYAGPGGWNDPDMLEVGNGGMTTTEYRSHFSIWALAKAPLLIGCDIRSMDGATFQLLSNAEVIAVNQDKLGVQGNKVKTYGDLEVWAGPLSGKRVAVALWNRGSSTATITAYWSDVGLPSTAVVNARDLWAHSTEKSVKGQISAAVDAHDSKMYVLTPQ

`O=C(O)CN1C[C@H](O)[C@@H](O)[C@H](O)[C@H]1CO` [Compound G6, 2-((2R,3R,4R,6S)-3,4,5-Trihydroxy-2-(hydroxymethyl)piperidin-1-yl)acetic acid]: the inhibition at 800 µM (in test [1]; against α-D-glucosidase (Yeast); in test [2]; in test [3]; in test [4]; in [6]) was below 50% each time. Besides, the figures for the inhibition at 800 µM (in test [7]; against α-D-glucosidase (Rice)) were below 50% and 99.7%, respectively. The “% inhibition, N-acetyl-β-D-glucosaminidase (Bovine kidney)” value (from here on “% inhibition”) in test [5] is reported as 83.6%. Moreover, the IC50 – broadly, the concentration at which inhibition is half-maximal – in test [5] (setting [12]) came out at 10.4 µM; at α-D-glucosidase (Rice), 1 µM; in [8] (setting [13]) it was 80 µM.

For the compound `O=C(O)[C@@H]1[C@@H](O)[C@H](O)[C@@H](O)CN1CCO` [Compound T3, (2S,3R,4R,5S)-3,4,5-Trihydroxy-1-(2-hydroxyethyl)piperidine-2-carboxylic acid], the inhibition at 800 µM (in test [1]; against α-D-glucosidase (Yeast); in [2]; in [3]; in test [4]; in test [6]) was below 50% in each case. The inhibition (in general, the percentage by which the read-out fell short of the control) at 800 µM in test [7] is below 50%; against α-D-glucosidase (Rice), 67.2%. The “% inhibition” value in [5] worked out at 82.0%. In addition, the 50% inhibitory concentration (IC50) turned out to be 12.2 µM in test [5] (read-out: IC50 against mammalian 6-N-acetylglucosaminidase (hexosaminidase)), 259 µM on α-D-glucosidase (Rice) and 60 µM in [8] (read-out: IC50 against mammalian glucuronidase).

`O=C(O)CN1C[C@@H](O)[C@H](O)[C@H]1CO` [Compound T4, 2-((2R,3R,4R)-3,4-Dihydroxy-2-(hydroxymethyl)pyrrolidin-1-yl)acetic acid]: the inhibition at 800 µM (in [1]; against α-D-glucosidase (Yeast); in [2]; in [3]; in [4]; in test [6]) was below 50% in each case. For the same compound, the inhibition at 800 µM (in [7]; against α-D-glucosidase (Rice)) was below 50% throughout. Moreover, in test [5], the “% inhibition” value amounted to 81.9%. Also, the figures for the 50% inhibitory concentration (IC50) in test [5] (setting [12]) and in [8] (setting [13]) were 39.6 µM and 160 µM, respectively.

Regarding `CCCCN1C[C@H](O)[C@@H](O)[C@H](O)[C@H]1CO` [Zavesca, N-butyl-DNJ, reference compound], the values for the IC50 in test [9], in test [10] and in [11] were 0.19 µM, 0.22 µM and 0.97 µM, respectively.
